Columns and labels:
human neutrophils = test: MTT cell viability test; format: cell-based; conditions: 1% solution, 24 hours; untreated cells = 100%
Description: Human neutrophils were isolated from whole blood samples taken from 10 healthy volunteers (5 men and 5 women, mean age: 34.1 ± 3.7 years) using the EasySep™ Direct human neutrophil isolation kit ([…] Technologies, Vancouver, Canada). After isolation, neutrophils were resuspended at a concentration of 5 * 10^6 cells/ml in Hank's balanced saline solution (37°C) containing 10 mM of HEPES pH 7.4, 1.6 mM Ca^2+ and not Mg^2+.
Cell viability was determined using the MTT test kit (Promega, Madison, WI, USA) according to the manufacturer's protocol (MTT: 3-(4,5-dimethylthiazol-2-yl)-2,5-diphenyltetrazolium bromide). In order to determine the cytotoxicity of the herbal extract of the invention, the cells were incubated with aqueous solutions of the herbal extract of the invention at three different concentrations (1%, 3% and 5%) for 24 hours. The cultures of the control group were not treated and the viability thereof was set to 100%. […] Int J Pharm Sei (2012) 3: 2325-2336]. […] Absorbance was subsequently measured with a microplate reader (Bio-Tek, Winooski, VT, USA) at a test wavelength of 595 nm and a reference wavelength of 690 nm. The optical density (OD) was calculated as the […]. The viability percentage was calculated using the following formula: (OD of treated sample / control OD) x 100.

PGE2 = PGE2 enzyme immunoassay in LPS-stimulated neutrophils; format: cell-based, human; conditions: 5 µg/ml of LPS plus test substance 1%, 24 hours
Description: Human neutrophils were isolated from whole blood samples taken from 10 healthy volunteers (5 men and 5 women, mean age: 34.1 ± 3.7 years) using the EasySep™ Direct human neutrophil isolation kit ([sequence] Technologies, Vancouver, Canada). After isolation, neutrophils were resuspended at a concentration of 5 * 10^6 cells/ml in Hank's balanced saline solution (37°C) containing 10 mM of HEPES pH 7.4, 1.6 mM Ca^2+ and not Mg^2+.
Experiments were conducted on RPMI medium (RPMI: Rosewell Park Memorial Institute, cation-deficient medium Ca2+ and Mg2+ commonly used for white blood line cells) supplemented with 1% fetal bovine serum (37°C, 5% CO2, 95% humidity) after seeding neutrophils (5x10^5 cells/well) in a 96-well plate.
Evaluation of PGE2 concentrations in each well under six different experimental conditions was conducted using a commercially available competitive PGE2 enzyme immunoassay kit (GE Healthcare, Milwaukee, WI, USA). All tests were conducted three times.

substance P = test: Serum substance P levels (ELISA) in the clinical study; conditions: oral 200 mg/day, n = 50
[1] = test system: patients with mild to moderate osteoarthritis of the knee; test: Randomised, single-blind, active-controlled pilot clinical study, clinical endpoints (VAS, range of motion, WOMAC); format: in vivo, human; conditions: oral 200 mg/day, n = 50; for WOMAC scores Stiffness: range 0-8; for WOMAC scores Pain: range 0-20; for WOMAC scores Physical functionality: range 0-68; for WOMAC scores Total: range 0 to 96
Description: (§1) The inclusion criteria were as follows: 1) presence of symptoms for at least one month, 2) number of leukocytes in synovial fluid < 2000/ml, 3) pain on a visual analogue scale (VAS) ≥ 2 at rest and 4) duration of stiffness in the morning ≤ 30 min. The following exclusion criteria were applied: 1) pregnancy or breastfeeding, 2) history of severe renal, hepatic, cardiac, gastrointestinal or haematological diseases, 3) presence of malignant tumours, 4) presence of neurological or psychiatric disorders, 5) atopy or allergic disorders, 6) diabetes mellitus or other endocrine disorders, 7) coagulation disorders, 8) history of peptic ulcer disease, 9) use of corticosteroid in the four weeks prior to the study and 10) use of NSAIDs in the two weeks prior to the study. According to the Kellgren-Lawrence classification system, 61.3% and 38.7% of patients in the study had scores of 1 and 2, respectively.
The study period was two weeks.
Patients (n = 150) were randomised into three study groups (1:1:1 ratio). The randomisation sequence was generated by a special software.
A total of three assessments were performed (at baseline, one week and at the end of the 2-week treatment period).
Clinical endpoints included: • 1) patient's evaluation of the arthritis pain score (VAS) at rest (range: 0-10; where 0 is no pain and 10 is maximum pain), • 2) patient's evaluation of the arthritis pain score (VAS) at movement (range: 0-10; where 0 is no pain and 10 is maximum pain), • 3) joint motion range (degrees) and • 4) WOMAC (Western Ontario and McMaster University) index score [Salaffi et al. Osteoarthritis cartilage 2003; 11: 551-60].
WOMAC score consists of sub-scales that measure pain (range: 0-20; where 0 is no pain and 20 is the maximum pain), stiffness (range: 0-8, where 0 is no stiffness and 8 is the maximum stiffness) and physical functionality (range: 0-68, where 0 is the best functionality and 68 is the worst functionality). The resulting total composite score ranges from 0 to 96.

[2] = Safety in the clinical study (treatment-emergent adverse events, laboratory tests); format: in vivo, human; conditions: oral 200 mg/day for 2 weeks, n = 50
Description: as §1
Safety was evaluated by recording treatment-emergent adverse events and changes with respect to the baseline in clinical laboratory tests, in vital signs and in objective examinations, all of which were performed during visits at weeks 1 and 2. Clinically relevant changes in laboratory values were defined as: • aspartate aminotransferase (AST) and/or alanine transaminase (ALT) ≥ 3 × upper limit of normal (ULN), • creatinine ≥ 1.3 × ULN, • blood urea nitrogen (BUN) ≥ 2 × ULN, • decrease in haematocrit value ≥ 5 percentage points with respect to the baseline and • decrease in haemoglobin value ≥ 2 g/dl from baseline.

In the case of `Cc1ccc(-c2cc(C(F)(F)F)nn2-c2ccc(S(N)(=O)=O)cc2)cc1` [Celecoxib], the “cell viability (MTT), % of the control value” (human neutrophils) is reported as 90 ± 2%, the PGE2 levels (PGE2) is reported as 19.21 ± 2.39 pg/well and the “SP (serum substance P)” value (substance P; Baseline) is reported as 436 ± 95 pg/mL. The “SP (serum substance P)” value (substance P; End of study (2 weeks)) was 299 ± 64 pg/mL, the “SP (serum substance P)” value (substance P; One week) was 358 ± 78 † pg/ml and the “Pain at motion, VAS (0-10)” value ([1]; Baseline) was 3.8 ± 0.6. For the same molecule, the “Pain at rest, VAS (0-10)” value ([1]; Baseline) was 2.9 ± 0.4, the “Range of motion (degrees)” value ([1]; Baseline) was 134 ± 10 degrees and the “WOMAC scores Stiffness” value ([1]; Baseline) was 1.4 ± 0.3. For the same molecule, the “WOMAC scores Pain” value ([1]; Baseline) was 5.7 ± 0.8, the “WOMAC scores Physical functionality” value ([1]; Baseline) was 20.5 ± 3.2 and the “WOMAC scores Total” value ([1]; Baseline) was 27.6 ± 3.8. The “Pain at motion, VAS (0-10)” value ([1]; End of study (2 weeks)) was 2.2 ± 0.4, the “Pain at rest, VAS (0-10)” value ([1]; End of study (2 weeks)) was 1.5 ± 0.4 and the “Range of motion (degrees)” value ([1]; End of study (2 weeks)) was 173 ± 19 degrees. The “WOMAC scores Stiffness” value ([1]; End of study (2 weeks)) was 0.7 ± 0.1, the “WOMAC scores Pain” value ([1]; End of study (2 weeks)) was 3.0 ± 0.9 and the “WOMAC scores Physical functionality” value ([1]; End of study (2 weeks)) was 11.4 ± 1.7. For the same molecule, the “WOMAC scores Total” value ([1]; End of study (2 weeks)) was 15.1 ± 2.2, the “Pain at motion, VAS (0-10)” value ([1]; One week) was 2.9 ± 0.5 and the “Pain at rest, VAS (0-10)” value ([1]; One week) was 2.0 ± 0.3. The “Range of motion (degrees)” value ([1]; One week) was 160 ± 15 degrees, the “WOMAC scores Stiffness” value ([1]; One week) was 1.0 ± 0.2 and the “WOMAC scores Pain” value ([1]; One week) was 4.1 ± 0.9. The “WOMAC scores Physical functionality” value ([1]; One week) was 14.6 ± 2.1, the “WOMAC scores Total” value ([1]; One week) was 19.7 ± 2.9 and the “Gastrointestinal adverse events: Constipation” value [2] was 2 (4%) number of patients (percentages in brackets). The “Gastrointestinal adverse events: Nausea” value [2] was 2 (4%) number of patients (percentages in brackets), the “Other adverse events: Headache” value [2] was 3 (6%) number of patients (percentages in brackets) and the “Other adverse events: Itching” value [2] was 1 (2%) number of patients (percentages in brackets). The “changes with respect to the baseline in laboratory safety tests” value [2] was “no changes with respect to the baseline”.
